The source of these data is US20150272874A1, “PULMONARY DISEASE-SPECIFIC THERAPEUTIC AGENT” (CARDIO INCORPORATED, priority 2012, published 2015).

For data set [1], the system named is monocrotaline (MCT) pulmonary hypertension models. Kind of data set: Pharmacological Effect Test 5: combined effect of ozagrel hydrochloride with Compounds 3 and 7, survival. It is filed as in vivo, Slc;Wistar female rats. Conditions: oral twice a day until Day 42; Compound 3 or 7 0.1 mg/kg, ozagrel hydrochloride 100 mg/kg, alone or combined. As to the method: After Slc;Wistar female rats (5 weeks old) were anesthetized with inhaled isoflurane, an aqueous monocrotaline (MCT) solution was subcutaneously administered into the dorsal region of each rat at a dose of 60 mg/kg (an injection volume of 3 mL/Kg) using a disposable syringe and a 27G disposable injection needle to prepare pulmonary hypertension models.
From immediately after the MCT administration until Day 42, test substances were repeatedly administered orally twice a day as shown in the following table.
The test substances were suspended in 0.5% aqueous CMC-Na solutions, and the aqueous solutions were orally administered repeatedly at a dose of 5 mL/kg.

Data set [2] can be described thus: Maximum tolerated oral dose without blood-pressure-lowering effect. It is filed as in vivo.
The test system of data set [3] is MCT-induced mild pulmonary hypertension model. The following applies: mild disease model; Am J Respir Crit Care Med 169: 34-38-2004; cited from earlier work.
For data set [4] the following is noted: cited from earlier work.
The nature of data set [5]: Pharmacological Effect Test 3: Compound 1 content of the lungs (LC/MS/MS). Conditions: for Concentration of Compound 1 in the tissue: lung, individual animals, 1 mg/kg. It is filed as in vivo, Slc;Wistar male rats. As to the method: Further, the Compound 1 contents of the lungs in Groups 3 and 4 were measured.
A four-fold amount of a mixture of distilled water and ethanol relative to the lung weight was added to form a homogenate. Acetonitrile was added to a part of the homogenate and the resulting mixture was stirred. The centrifuged supernatant was collected and concentrated. After the concentrate was dissolved in a solvent, LC/MS/MS measurement was performed under the same conditions as in Preparation Test Example 2 to determine Compound 1 content of the lungs.

The subject of data set [6] is Normal human newborn foreskin dermal fibroblasts (Fibrocell NHDF (NB)). The experiment in a line: Pharmacological Effect Test 6: production of cytokines (ELISA) and PGs (EIA). It is filed as cell-based. Conditions: 1 μM, 72 hours, n=3, M ± S.E. As to the method:
Normal human newborn foreskin dermal fibroblasts (Fibrocell NHDF (NB)) provided from Kurabo Industries, Ltd., were cultured to confluency at […] (DMEM 10% FBS). Twenty-four hours after replacing the medium with (serum-free) DMEM, the medium was replaced with DMEM (0.2% FBS), and Compound 1 (1 μM) and a solvent (DMSO) was added. The cells were cultured for 72 hours (n=3).
Cytokines in the culture were measured by ELISA, and prostaglandins were measured by EIA.
PGI2 was measured by using a degradation product of PGI2 (6-keto-PGF1α).

The test system of data set [7] is blood TXA2 concentration. Conditions: MCT rat models; Am J Respir Crit Care Med 172, 1575-1580 (2005); cited from earlier work.
The conditions of data set [8]: cited from earlier work. This is another data set of the same source.
The target of data set [9] is T1, TXA2 synthetase (Rattus norvegicus, UniProt P49430).
T1 construct: endogenous in cells; host or cells: Whole animal dosed in vivo (rat inferred)
T1 sequence (P49430 1-533): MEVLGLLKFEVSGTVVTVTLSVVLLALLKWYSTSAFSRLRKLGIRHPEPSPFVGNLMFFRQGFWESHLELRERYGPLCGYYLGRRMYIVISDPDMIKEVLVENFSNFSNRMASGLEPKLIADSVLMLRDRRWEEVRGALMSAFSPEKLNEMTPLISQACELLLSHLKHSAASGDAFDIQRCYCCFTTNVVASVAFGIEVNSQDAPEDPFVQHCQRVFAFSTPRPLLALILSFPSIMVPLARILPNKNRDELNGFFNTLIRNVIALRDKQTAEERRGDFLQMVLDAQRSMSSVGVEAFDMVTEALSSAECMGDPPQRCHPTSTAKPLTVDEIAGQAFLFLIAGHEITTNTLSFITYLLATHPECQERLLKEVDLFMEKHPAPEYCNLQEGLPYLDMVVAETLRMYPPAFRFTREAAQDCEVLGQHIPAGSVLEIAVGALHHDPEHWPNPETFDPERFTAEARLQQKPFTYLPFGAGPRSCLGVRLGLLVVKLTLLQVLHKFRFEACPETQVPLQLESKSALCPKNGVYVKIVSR
The experiment in a line: Dose completely inhibiting TXA2 synthetase. It is filed as in vivo. Conditions: oral dose.

SMILES strings stand for the structures. Several values for one entry are separate records, joined by “and”; a condition that tells them apart may be missing. Identical values can stand only once. Counter-ions that a name gives are not always drawn.

Take `CC#CC[C@@H](C)[C@H](O)/C=C/[C@@H]1[C@H]2c3cccc(CCCC(=O)[O-])c3O[C@H]2C[C@H]1O.[Na+]` (racemic) [Compound 3, sodium (±)-(1R,2R,3aS,8bS)-2,3,3a,8b-tetrahydro-2-hydroxy-1-[(E)-(3S,4RS)-3-hydroxy-4-methyl-1-octen-6-ynyl]-1H-cyclopenta[b]benzofuran-5-butanoate]: the “survival rate vs medium-administered group” value in data set [1] is “no survival prolongation effect”. Also, in data set [2] (Slc:Wistar, rat, in vivo, read-out: maximum tolerated dose that does not show blood-pressure-lowering effect), the MTD was 0.1 mg/kg. Also, in [3], the “combined effect with a PDEV inhibitor (sildenafil)” value is listed as “synergistic effect” and the efficacy administered alone entry was “efficacious”. Also, the long-term effects entry in data set [4] (after 1 year) is “no significant difference”. Further, in [4] (relatively short-term (after 12 weeks)), the exercise tolerance result is reported as “improved”.
For `O=C(O)COc1cccc2c1CCC=C2CCO/N=C(\c1ccccc1)c1cccnc1` [Compound 1, (E)-[5-[2-[1-phenyl-1-(3-pyridyl)methylideneaminooxy]ethyl]-7,8-dihydronaphthalen-1-yloxy]acetic acid], the “average concentration in lung tissue” value in data set [5] (Group 3: Preparation Example 1 single i.v. 1 mg/kg) came to 76.35 ng/g. For the same compound, the “average concentration in lung tissue” value in data set [5] (Group 4: Preparation Example 1 single s.c. 1 mg/kg) stood at 0.659 ng/g. Also, in [5] (i.v. 1 mg/kg vs s.c. 1 mg/kg), the “concentration in lung tissue, intravenous compared to subcutaneous injection” value is “about 120 fold” and the “ratio of Group 3 to Group 4, concentration in lung tissue” value is 115.9. For the same compound, the “Concentration of Compound 1 in the tissue” value in data set [5] (Group 3 (1 mg/kg) of Preparation Example 1) was 50.0 ng/g and 99.2 ng/g and 45.2 ng/g and 111 ng/g. For the same compound, the “Concentration of Compound 1 in the tissue” value in data set [5] (Group 4 (1 mg/kg) as printed, Preparation Example 1) was 1.06 ng/g and 0.258 ng/g. In [6], the “6-keto-PGF1α (PGI2)” value is recorded as 44.5 ± 4.014 pg/mL, the G-CSF was 28.71 ± 6.110 pg/mL, the HGF came to 102.60 ± 15.658 pg/mL and the HMGB1 is 1.480 ± 0.147 ng/mL. Moreover, in data set [6], the PGE2 is on record as 38.1 ± 6.392, the SDF-1α worked out at 2457.46 ± 231.884 pg/mL and the VEGF came to 38.44 ± 11.857 pg/mL. In [7], the “blood TXA2 concentration” value was “inhibits an increase”.
In the case of `CCCC[C@H](C)C[C@H](O)/C=C/[C@H]1[C@H](O)CC(=O)[C@@H]1CC(=O)CCCCC(=O)OC` [Compound 7, 17S,20-dimethyl-6-oxo-prostaglandin E1 methyl ester], the “survival rate vs medium-administered group” value in data set [1] is given as “no survival prolongation effect”. Further, in [2], the “maximum tolerated dose that does not show blood-pressure-lowering effect” value was determined as 0.1 mg/kg.
`CCCCC[C@H](O)/C=C/[C@@H]1[C@H]2C/C(=C/CCCC(=O)O)O[C@H]2C[C@H]1O` [Epoprostenol sodium, reference compound]: the half-life entry in [8] is “about 6 minutes”. In data set [7], the “blood TXA2 concentration” value is on record as “further increases”.
Turning to `O=C(O)/C=C/c1ccc(Cn2ccnc2)cc1` [ozagrel hydrochloride], the “survival rate vs medium-administered group” value in data set [1] is listed as “no survival prolongation effect”. Besides, the “amount that completely inhibits the TXA2 synthetase” value in [9] turned out to be 100 mg/kg.
